Test system: HUVECs
Assay: Measurement of intracellular free [Ca2+]i in HUVEC suspension (Fura-2/AM, thrombin stimulation)
Type: cell-based, human
Conditions: rest HUVEC; 16 h treatment; Ab 0.4 and 1.6 μg/mL, peptides 15 and 30 μg/mL; thrombin 1 U/ml
Experimental: HUVECs were cultured in EGM™ supplied with 10% of fetal bovine serum (FBS, dialyzed) to early confluence. HUVECs (passage number 3-4) were pre-incubated with and without TNF-α (5 ng/mL, 4 hour), next the cells were subjected to various doses of the JHS-7 Ab, accompanied by the pAb-C (c-terminal anti-PECAM-1 antibody) and a rabbit IgG (both served as controls). In addition, HUVECs were also incubated with a various doses of the JHS-7 peptide and a scrambled peptide served as its control. The treatments were carried out in EGM™ supplied with 2% of FBS for 16 hours. […] All above-mentioned peptides and antibodies were tested endotoxin free with an endotoxin detection kit (Sigma E-TOXATE®). Cell viability was determined with trypan blue exclusion assay after the incubation and no cytotoxic effect was observed under the Applicants' experimental conditions. HUVEC monolayers, following the incubation, were subjected to the following assays simultaneously: 1) monocyte TEM assay; 2) [Ca^2+]i measurement. […] Experimental results were calculated as average levels and plotted as % controls.
[Ca^2+]i measurement was conducted as described previously with slight modification. […] Fluorescence was recorded using a spectrofluorometer (Perkin Elmer LS-50B), with excitation and emission wavelengths of 340 and 505 nm, respectively. […]

scrambled peptide: control peptide of identical amino acid composition but different sequence TEDVLVPQNKSDNKATNNAFPNVSYVDEEDC (SEQ ID NO: 4) (Nonsense peptide with no known matches.)
thrombin stimulatable [Ca2+]i: no effect
